For 19 compounds, Ki and efflux ratio results are on record in US10285989B2, “Pyrimidinone amide compounds as PDE2 inhibitors” (Merck Sharp & Dohme Corp., priority 2015, dated 2019).

Each structure is given as a SMILES string. Read-outs that look alike come from different tables or passages of the source.

For one data set, the target named is human PDE2A1 (Homo sapiens (Human), UniProt O00408). Put plainly: PDE2 IMAP FP inhibition assay, human PDE2A1 (selectivity panel format). The format is biochemical. The procedure, abridged: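 IMAP fluorescence polarization assay; substrate 50 nM FAM-cAMP with 1000 nM cGMP, enzyme at ~20% conversion, in 10 mM Tris pH 7.2, 10 mM MgCl2, 1 mM DTT, 0.01% Tween-20. 60 min room temperature, stopped with IMAP binding reagent, 1 h, then parallel/perpendicular fluorescence read.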
human PDE2A1, sequence (O00408 other isoform, or with tags, fused parts or gaps): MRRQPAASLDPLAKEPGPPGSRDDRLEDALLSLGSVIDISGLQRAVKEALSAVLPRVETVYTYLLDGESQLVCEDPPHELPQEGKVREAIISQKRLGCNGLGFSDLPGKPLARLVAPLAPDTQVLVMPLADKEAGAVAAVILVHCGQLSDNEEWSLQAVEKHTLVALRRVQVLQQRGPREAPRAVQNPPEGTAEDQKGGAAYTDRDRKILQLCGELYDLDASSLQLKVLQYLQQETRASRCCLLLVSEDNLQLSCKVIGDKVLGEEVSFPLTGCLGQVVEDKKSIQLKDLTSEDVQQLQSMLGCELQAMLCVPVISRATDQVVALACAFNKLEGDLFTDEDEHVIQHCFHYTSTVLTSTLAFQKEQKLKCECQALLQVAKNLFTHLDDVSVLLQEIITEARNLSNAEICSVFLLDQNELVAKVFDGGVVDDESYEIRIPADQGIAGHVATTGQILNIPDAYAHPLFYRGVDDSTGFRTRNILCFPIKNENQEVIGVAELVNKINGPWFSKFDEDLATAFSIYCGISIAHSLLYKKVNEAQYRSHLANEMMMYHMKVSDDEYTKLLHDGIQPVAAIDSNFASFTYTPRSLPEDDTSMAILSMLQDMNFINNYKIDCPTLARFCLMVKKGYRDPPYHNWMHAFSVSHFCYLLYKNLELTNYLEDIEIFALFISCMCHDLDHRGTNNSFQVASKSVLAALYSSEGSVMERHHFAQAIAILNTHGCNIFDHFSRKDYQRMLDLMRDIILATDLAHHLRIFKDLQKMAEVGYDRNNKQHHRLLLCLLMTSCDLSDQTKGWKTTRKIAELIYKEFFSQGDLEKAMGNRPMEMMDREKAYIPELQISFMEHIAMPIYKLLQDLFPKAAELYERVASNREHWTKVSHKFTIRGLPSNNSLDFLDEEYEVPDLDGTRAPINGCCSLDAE

For another data set, the target named is P-glycoprotein (P-gp) (Homo sapiens (Human), UniProt P08183). The data set is described as follows: P-gp transport, experimental BA/AB ratio, human. As to conditions: LLC-PK1, 1 μM substrate concentration. Format: in vitro ADME. The source says: (§1) See Doan et al. “Passive permeability and P-glycoprotein-mediated efflux differentiate central nervous system (CNS) and non-CNS marketed drugs”, J. Pharm. Exper. […] Desirable human BA/AB ratio is less than 2.0. […] See, for example, Desai, et al. Integration of in Silico and in Vitro Tools for Scaffold Optimization during Drug Discovery: Predicting P-glycoprotein Efflux” Mol. Pharmac.
P-glycoprotein (P-gp), sequence (P08183 whole entry): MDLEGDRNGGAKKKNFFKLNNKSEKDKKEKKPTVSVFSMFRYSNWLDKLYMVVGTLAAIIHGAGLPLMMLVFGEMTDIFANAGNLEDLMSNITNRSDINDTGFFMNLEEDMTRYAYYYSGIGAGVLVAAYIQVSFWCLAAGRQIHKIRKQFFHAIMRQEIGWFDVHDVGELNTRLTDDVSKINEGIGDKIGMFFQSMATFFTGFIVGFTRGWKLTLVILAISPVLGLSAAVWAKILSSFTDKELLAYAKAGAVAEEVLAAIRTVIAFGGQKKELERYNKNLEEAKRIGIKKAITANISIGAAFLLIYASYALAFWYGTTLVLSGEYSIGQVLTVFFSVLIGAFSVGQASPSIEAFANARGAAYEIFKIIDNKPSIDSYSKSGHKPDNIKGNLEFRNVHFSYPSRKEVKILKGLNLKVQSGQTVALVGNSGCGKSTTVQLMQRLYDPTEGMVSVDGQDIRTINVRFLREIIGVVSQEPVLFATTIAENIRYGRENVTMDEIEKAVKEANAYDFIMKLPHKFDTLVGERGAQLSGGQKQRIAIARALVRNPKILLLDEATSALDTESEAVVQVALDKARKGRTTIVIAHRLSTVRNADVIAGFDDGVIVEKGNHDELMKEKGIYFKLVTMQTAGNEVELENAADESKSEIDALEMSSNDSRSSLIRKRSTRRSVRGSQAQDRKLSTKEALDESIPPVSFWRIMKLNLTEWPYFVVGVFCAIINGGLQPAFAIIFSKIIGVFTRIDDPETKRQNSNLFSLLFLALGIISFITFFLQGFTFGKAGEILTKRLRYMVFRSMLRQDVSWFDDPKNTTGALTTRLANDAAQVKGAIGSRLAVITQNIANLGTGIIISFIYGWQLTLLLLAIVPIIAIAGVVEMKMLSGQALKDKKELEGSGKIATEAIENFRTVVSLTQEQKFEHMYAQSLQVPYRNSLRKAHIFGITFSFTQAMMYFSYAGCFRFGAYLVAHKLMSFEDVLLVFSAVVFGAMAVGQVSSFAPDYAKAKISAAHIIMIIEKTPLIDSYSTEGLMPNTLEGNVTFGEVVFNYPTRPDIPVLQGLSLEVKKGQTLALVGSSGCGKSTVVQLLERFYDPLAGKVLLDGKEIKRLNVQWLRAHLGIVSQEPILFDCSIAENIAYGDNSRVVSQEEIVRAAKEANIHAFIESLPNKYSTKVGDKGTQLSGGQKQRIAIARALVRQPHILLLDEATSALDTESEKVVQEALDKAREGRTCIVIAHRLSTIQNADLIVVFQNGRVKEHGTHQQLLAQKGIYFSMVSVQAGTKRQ

The target of another data set is Rhesus PDE2A3 (Macaca mulatta, UniProt B3VTJ2). Put plainly: PDE2 fluorescence polarization (IMAP FP) inhibition assay, rhesus PDE2A3. The format is biochemical, rhesus macaque.
Rhesus PDE2A3, sequence (B3VTJ2 1-941): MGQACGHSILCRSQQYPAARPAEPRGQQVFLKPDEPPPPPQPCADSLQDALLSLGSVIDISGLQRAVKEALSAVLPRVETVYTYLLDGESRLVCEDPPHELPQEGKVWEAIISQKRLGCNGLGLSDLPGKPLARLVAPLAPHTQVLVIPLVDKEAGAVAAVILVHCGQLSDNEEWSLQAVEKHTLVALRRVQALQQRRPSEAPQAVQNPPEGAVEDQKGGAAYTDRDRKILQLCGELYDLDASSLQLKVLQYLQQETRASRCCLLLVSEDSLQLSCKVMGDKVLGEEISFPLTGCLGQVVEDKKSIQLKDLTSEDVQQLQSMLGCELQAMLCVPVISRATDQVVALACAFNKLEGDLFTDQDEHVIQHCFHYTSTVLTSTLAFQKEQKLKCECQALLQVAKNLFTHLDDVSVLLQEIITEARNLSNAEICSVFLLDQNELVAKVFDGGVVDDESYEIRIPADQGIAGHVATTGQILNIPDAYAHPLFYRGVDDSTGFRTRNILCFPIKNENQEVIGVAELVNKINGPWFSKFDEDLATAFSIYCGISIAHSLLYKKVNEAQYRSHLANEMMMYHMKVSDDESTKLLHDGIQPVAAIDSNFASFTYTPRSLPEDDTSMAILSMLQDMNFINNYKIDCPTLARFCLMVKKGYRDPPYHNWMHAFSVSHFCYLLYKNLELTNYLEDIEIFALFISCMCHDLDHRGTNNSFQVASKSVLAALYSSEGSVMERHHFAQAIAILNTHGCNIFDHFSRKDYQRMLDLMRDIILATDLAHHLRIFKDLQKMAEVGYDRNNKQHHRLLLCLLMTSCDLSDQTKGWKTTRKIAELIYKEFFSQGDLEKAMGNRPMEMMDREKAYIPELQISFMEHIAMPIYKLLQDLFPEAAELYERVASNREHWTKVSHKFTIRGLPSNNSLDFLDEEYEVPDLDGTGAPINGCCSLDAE
The target of data set [1] is P-glycoprotein (P-gp, rat Mdr1a) (Rattus norvegicus, UniProt Q6PSM0). Put plainly: P-gp transport, experimental BA/AB ratio, rat LLC-Mdr1a. The format is in vitro ADME. Particulars: LLC-PK1; rat LLC-Mdrla; 1 μM substrate concentration.
P-glycoprotein (P-gp, rat Mdr1a), sequence (Q6PSM0 1-1272): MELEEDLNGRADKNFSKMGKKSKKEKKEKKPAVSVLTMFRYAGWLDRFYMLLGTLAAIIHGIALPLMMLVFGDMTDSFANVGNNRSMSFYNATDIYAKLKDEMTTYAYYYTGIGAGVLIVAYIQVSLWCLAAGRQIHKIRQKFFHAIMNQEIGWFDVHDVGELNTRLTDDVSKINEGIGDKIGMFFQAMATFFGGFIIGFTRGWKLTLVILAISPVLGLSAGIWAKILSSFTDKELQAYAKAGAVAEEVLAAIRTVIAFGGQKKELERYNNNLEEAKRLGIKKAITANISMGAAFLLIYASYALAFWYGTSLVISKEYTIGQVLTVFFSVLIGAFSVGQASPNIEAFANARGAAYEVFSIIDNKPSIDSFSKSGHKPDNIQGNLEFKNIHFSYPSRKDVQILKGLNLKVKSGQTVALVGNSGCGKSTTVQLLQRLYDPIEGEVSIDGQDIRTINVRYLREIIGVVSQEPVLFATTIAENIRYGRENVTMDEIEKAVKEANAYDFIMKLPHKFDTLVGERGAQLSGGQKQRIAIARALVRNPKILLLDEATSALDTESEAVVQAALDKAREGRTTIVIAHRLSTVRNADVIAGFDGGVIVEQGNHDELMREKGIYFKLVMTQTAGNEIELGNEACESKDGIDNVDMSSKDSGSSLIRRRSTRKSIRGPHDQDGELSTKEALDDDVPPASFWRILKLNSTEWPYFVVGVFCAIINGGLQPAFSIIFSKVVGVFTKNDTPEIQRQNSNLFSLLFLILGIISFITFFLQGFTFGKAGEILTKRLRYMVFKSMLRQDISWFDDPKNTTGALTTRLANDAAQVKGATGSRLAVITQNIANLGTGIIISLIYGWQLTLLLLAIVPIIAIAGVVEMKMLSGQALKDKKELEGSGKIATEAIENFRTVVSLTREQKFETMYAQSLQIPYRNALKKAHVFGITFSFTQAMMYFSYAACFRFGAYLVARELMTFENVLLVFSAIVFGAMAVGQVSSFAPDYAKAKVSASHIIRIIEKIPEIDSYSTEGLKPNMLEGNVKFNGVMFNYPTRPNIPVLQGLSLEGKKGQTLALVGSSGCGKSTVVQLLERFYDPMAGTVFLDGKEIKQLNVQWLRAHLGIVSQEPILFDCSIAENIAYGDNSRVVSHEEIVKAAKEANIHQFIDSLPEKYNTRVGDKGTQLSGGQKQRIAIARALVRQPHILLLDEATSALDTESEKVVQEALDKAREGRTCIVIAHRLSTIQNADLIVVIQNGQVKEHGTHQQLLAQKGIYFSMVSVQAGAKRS
Excerpt: as §1

The mark [2] stands for this setting: Lab B, read-out: Human PDE2 Ki (nM) - Lab B.
The mark [3] stands for this setting: Lab A, read-out: Rhesus PDE2 Ki (nM) - Lab A.
[4] abbreviates: Lab B, read-out: Rhesus PDE2 Ki (nM) - Lab B.
Where [5] appears, read: Lab A, read-out: Human PDE2 Ki (nM) - Lab A.

As for `CN(C)c1nc(C(=O)N[C@@H](c2ccc(C(F)(F)F)c(F)c2)C2CC2)cc(=O)[nH]1` [Example 109, N-{(1R)-cyclopropyl[3-fluoro-4-(trifluoromethyl)phenyl]methyl}-2-(dimethylamino)-6-oxo-1,6-dihydropyrimidine-4-carboxamide], the Ki at human PDE2A1 (setting [2]) amounted to 1.9 nM; at Rhesus PDE2A3 (setting [3]) it was 0.91 nM; at Rhesus PDE2A3 (setting [4]) it was 1.4 nM. Also, the efflux ratio at 1 μM at P-glycoprotein (P-gp) was 0.5; in data set [1], 2.5.
For `CN(C)c1nc(C(=O)NC(c2ccc(SC(F)(F)F)c(F)c2)C2(C)CC2)cc(=O)[nH]1` (single isomer, unassigned) [Example 120, (R)- or (S)-2-(dimethylamino)-N-[{3-fluoro-4-[(trifluoromethyl)sulfanyl]phenyl}(1-methylcyclopropyl)methyl]-6-oxo-1,6-dihydropyrimidine-4-carboxamide], the results for the inhibitory constant (Ki) on human PDE2A1 (setting [2]) and on Rhesus PDE2A3 (setting [4]) were 1.9 nM and 1.8 nM, respectively. Also, the values for the efflux ratio at 1 μM (on P-glycoprotein (P-gp); in data set [1]) were 27.3 and 47.2, respectively.
As for `C[C@@H](NC(=O)c1cc(=O)[nH]c(N2Cc3cncnc3C2)n1)c1ccc(C(F)(F)F)cc1` [Example 161, 2-(5,7-dihydro-6H-pyrrolo[3,4-d]pyrimidin-6-yl)-6-oxo-N-{(1R)-1-[4-(trifluoromethyl)phenyl]ethyl}-1,6-dihydropyrimidine-4-carboxamide], the values for the Ki on human PDE2A1 (setting [5]) and at Rhesus PDE2A3 (setting [3]) were 5 nM and 5.1 nM, respectively. Besides, the values for the efflux ratio at 1 μM (at P-glycoprotein (P-gp); in data set [1]) were 14.6 and 23.7, respectively.
Consider `CC[C@@H](NC(=O)c1cc(=O)[nH]c(N(C)C)n1)c1ccc(S(F)(F)(F)(F)F)cc1` [Example 5, (R)-2-(dimethylamino)-6-oxo-N-(1-(4-(pentafluoro-λ^6-sulfanyl)phenyl)propyl)-1,6-dihydropyrimidine-4-carboxamide], for which the Ki on human PDE2A1 (setting [2]) was 1.3 nM; at Rhesus PDE2A3 (setting [3]), 0.69 nM; at Rhesus PDE2A3 (setting [4]) it was 1.5 nM. The results for the efflux ratio at 1 μM (on P-glycoprotein (P-gp); in data set [1]) were 0.5 and 3.6, respectively.
As for `CN(C)c1nc(C(=O)NC(C)(C)c2ccc(C(F)(F)F)c(F)c2)cc(=O)[nH]1` [Example 93, 2-(dimethylamino)-N-{1-[3-fluoro-4-(trifluoromethyl)phenyl]-1-methylethyl}-6-oxo-1,6-dihydropyrimidine-4-carboxamide], the Ki amounted to 3.8 nM on human PDE2A1 (setting [5]) and 4 nM at Rhesus PDE2A3 (setting [3]). Further, the efflux ratio at 1 μM turned out to be 0.3 on P-glycoprotein (P-gp) and 1.9 in data set [1].
Turning to `COc1cc(C(F)(F)F)ccc1C(C)(C)NC(=O)c1cc(=O)[nH]c(N(C)C)n1` [Example 79, 2-(dimethylamino)-N-{1-[2-methoxy-4-(trifluoromethyl)phenyl]-1-methylethyl}-6-oxo-1,6-dihydropyrimidine-4-carboxamide], the Ki amounted to 7.7 nM on human PDE2A1 (setting [2]) and 6.4 nM on Rhesus PDE2A3 (setting [4]). Further, the efflux ratio at 1 μM on P-glycoprotein (P-gp) is 0.9; in data set [1], 6.2.
`CN(C)c1nc(C(=O)N[C@@H](c2ccc(SC(F)(F)F)c(F)c2)C2CC2)cc(=O)[nH]1` [Example 97, N-[(R)-cyclopropyl{3-fluoro-4-[(trifluoromethyl)sulfanyl]phenyl}methyl]-2-(dimethylamino)-6-oxo-1,6-dihydropyrimidine-4-carboxamide]: the Ki is 0.34 nM at human PDE2A1 (setting [5]) and 0.62 nM at Rhesus PDE2A3 (setting [3]). Besides, the efflux ratio at 1 μM at P-glycoprotein (P-gp) is 0.4; in data set [1], 1.8.
`CN(C)c1nc(C(=O)N[C@@H](c2ccc(S(F)(F)(F)(F)F)cc2)C2(C)CC2)cc(=O)[nH]1` [Example 57, 2-(dimethylamino)-N-{(R)-(1-methylcyclopropyl)[4-(pentafluoro-λ^6-sulfanyl)phenyl]methyl}-6-oxo-1,6-dihydropyrimidine-4-carboxamide]: the values for the inhibitory constant (Ki) at human PDE2A1 (setting [2]) and on Rhesus PDE2A3 (setting [4]) were 0.31 nM and 0.28 nM, respectively. Moreover, the values for the efflux ratio at 1 μM (at P-glycoprotein (P-gp); in data set [1]) were 1.7 and 0.7, respectively.
Take `CC(C)[C@@H](NC(=O)c1cc(=O)[nH]c(N)n1)c1ccc(SC(F)(F)F)c(F)c1` [Example 156, 2-amino-N-[(1R)-1-{3-fluoro-4-[(trifluoromethyl)sulfanyl]phenyl}-2-methylpropyl]-6-oxo-1,6-dihydropyrimidine-4-carboxamide]: the Ki came out at 10 nM at human PDE2A1 (setting [5]) and 24 nM on Rhesus PDE2A3 (setting [3]). Besides, the efflux ratio at 1 μM at P-glycoprotein (P-gp) is 11.1; in data set [1], 11.3.
With `CN(C)c1nc(C(=O)N[C@@H](c2ccc(C(F)F)cc2)C(C)(C)C)cc(=O)[nH]1` [Example 60, N-{(1R)-1-[4-(difluoromethyl)phenyl]-2,2-dimethylpropyl}-2-(dimethylamino)-6-oxo-1,6-dihydropyrimidine-4-carboxamide], the Ki on human PDE2A1 (setting [2]) turned out to be 0.29 nM; at Rhesus PDE2A3 (setting [4]), 0.42 nM. Also, the efflux ratio at 1 μM on P-glycoprotein (P-gp) was 0.8; in data set [1] it was 4.3.
In the same order, the values of `CN(C)c1nc(C(=O)N[C@@H](c2ccc(C(F)(F)F)cc2F)C(C)(C)C)cc(=O)[nH]1` [Example 37, 2-(dimethylamino)-N-{(1R)-1-[2-fluoro-4-(trifluoromethyl)phenyl]-2,2-dimethylpropyl}-6-oxo-1,6-dihydropyrimidine-4-carboxamide] are 0.13 nM, 0.11 nM, 1 and 1.2.
For the compound `CC(C)[C@@H](NC(=O)c1cc(=O)[nH]c(N(C)C)n1)c1ccc(OC(F)(F)F)cc1` [Example 91, 2-(dimethylamino)-N-{(1R)-2-methyl-1-[4-(trifluoromethoxy)phenyl]propyl}-6-oxo-1,6-dihydropyrimidine-4-carboxamide], the inhibition constant (Ki) at human PDE2A1 (setting [5]) was found to be 0.19 nM; at Rhesus PDE2A3 (setting [3]) it was 0.64 nM. Further, the figures for the efflux ratio at 1 μM (at P-glycoprotein (P-gp); in data set [1]) were 0.6 and 5.1, respectively.
With `CN(C)c1nc(C(=O)N[C@@H](c2ccc(C(F)F)c(F)c2)C2CC2)cc(=O)[nH]1` [Example 66, N-{(R)-cyclopropyl[4-(difluoromethyl)-3-fluorophenyl]methyl}-2-(dimethylamino)-6-oxo-1,6-dihydropyrimidine-4-carboxamide], the inhibition constant (Ki) on human PDE2A1 (setting [2]) is 5 nM. The efflux ratio at 1 μM at P-glycoprotein (P-gp) is 0.8; in data set [1], 6.1.
In the same order, the values of `CN(C)c1nc(C(=O)N[C@@H](c2ccc(C(F)F)c(F)c2)C2(C)CC2)cc(=O)[nH]1` [Example 59, N-[(R)-[4-(difluoromethyl)-3-fluorophenyl](1-methylcyclopropyl)methyl]-2-(dimethylamino)-6-oxo-1,6-dihydropyrimidine-4-carboxamide] are 2 nM, 0.8 and 4.2.
In the same order, the values of `CN(C)c1nc(C(=O)N[C@@H](c2ccc(C(F)F)cc2)C2CC2)cc(=O)[nH]1` [Example 64, N-{(R)-cyclopropyl[4-(difluoromethyl)phenyl]methyl}-2-(dimethylamino)-6-oxo-1,6-dihydropyrimidine-4-carboxamide] are 7.4 nM, 0.8 and 5.6.
Turning to `CO[C@H]1CCN(c2nc(C(=O)N[C@@H](c3ccc(C(F)(F)F)cc3)C(C)(C)C)cc(=O)[nH]2)C1` [Example 170, N-{(1R)-2,2-dimethyl-1-[4-(trifluoromethyl)phenyl]propyl}-2-[(3S)-3-methoxypyrrolidin-1-yl]-6-oxo-1,6-dihydropyrimidine-4-carboxamide], at human PDE2A1 (setting [2]), the inhibitory constant (Ki) came to 0.11 nM. The efflux ratio at 1 μM at P-glycoprotein (P-gp) was found to be 5.6; in data set [1], 10.7.
For `CO[C@@H]1CCN(c2nc(C(=O)N[C@@H](c3ccc(C(F)(F)F)cc3)C(C)(C)C)cc(=O)[nH]2)C1` [Example 171, N-{(1R)-2,2-dimethyl-1-[4-(trifluoromethyl)phenyl]propyl}-2-[(3R)-3-methoxypyrrolidin-1-yl]-6-oxo-1,6-dihydropyrimidine-4-carboxamide], the Ki at human PDE2A1 (setting [2]) amounted to 1.4 nM. Besides, the efflux ratio at 1 μM on P-glycoprotein (P-gp) is 3.1; in data set [1], 24.4.
For `CC(C)[C@@H](NC(=O)c1cc(=O)[nH]c(N(C)C)n1)c1ccc(C(F)F)cc1` [Example 63, N-{(1R)-1-[4-(difluoromethyl)phenyl]-2-methylpropyl}-2-(dimethylamino)-6-oxo-1,6-dihydropyrimidine-4-carboxamide], in that order: 1.9 nM, 1.7 and 10.2.
For `COCC1CCN(c2nc(C(=O)N[C@@H](c3ccc(C(F)(F)F)cc3)C(C)(C)C)cc(=O)[nH]2)C1` (single isomer, unassigned) [Example 176, (R)- or (S)-N-{(1R)-2,2-dimethyl-1-[4-(trifluoromethyl)phenyl]propyl}-2-[3-(methoxy-methyl)pyrrolidin-1-yl]-6-oxo-1,6-dihydro-pyrimidine-4-carboxamide], in that order: 0.38 nM, 5.4 and 19.1.
